Reference: the NIST ThermoML archive (doi:10.1021/je900596d)
Numbers after ± are expanded uncertainties.

Conditions: for mass density: Vibrating tube method

FC(F)=C(F)C(F)(F)F [hexafluoropropene]
Conditions | mass density [kg/m3] | vapor or sublimation pressure [kPa]
355.18 K, 9543 kPa, Liquid | 1138.93 ± 1.2 | –
355.18 K, 9592.9 kPa, Liquid | 1139.78 ± 1.2 | –
355.18 K, 9645.5 kPa, Liquid | 1140.58 ± 1.2 | –
355.18 K, 9695.7 kPa, Liquid | 1141.39 ± 1.2 | –
355.18 K, 9747.1 kPa, Liquid | 1142.23 ± 1.2 | –
355.18 K, 9796.2 kPa, Liquid | 1143.06 ± 1.2 | –
355.18 K, 9846.2 kPa, Liquid | 1143.79 ± 1.2 | –
355.18 K, 9896.5 kPa, Liquid | 1144.79 ± 1.2 | –
355.18 K, 9947.2 kPa, Liquid | 1145.37 ± 1.2 | –
355.18 K, 9998.1 kPa, Liquid | 1146.19 ± 1.2 | –
355.24 K, Liquid, Closed cell (Static) method | – | 2903 ± 5
355.27 K, 1.7 kPa, Fluid (supercritical or subcritical phases) | 0.1 ± 0.03 | –
355.27 K, 2.5 kPa, Fluid (supercritical or subcritical phases) | 0.14 ± 0.03 | –
355.27 K, 3.1 kPa, Fluid (supercritical or subcritical phases) | 0.19 ± 0.03 | –
355.27 K, 3.6 kPa, Fluid (supercritical or subcritical phases) | 0.23 ± 0.03 | –
355.27 K, 4.8 kPa, Fluid (supercritical or subcritical phases) | 0.28 ± 0.03 | –
355.27 K, 5.8 kPa, Fluid (supercritical or subcritical phases) | 0.37 ± 0.03 | –
355.27 K, 6.4 kPa, Fluid (supercritical or subcritical phases) | 0.38 ± 0.03 | –
355.27 K, 7.6 kPa, Fluid (supercritical or subcritical phases) | 0.44 ± 0.03 | –
355.27 K, 8.8 kPa, Fluid (supercritical or subcritical phases) | 0.47 ± 0.03 | –
355.27 K, 9.4 kPa, Fluid (supercritical or subcritical phases) | 0.5 ± 0.03 | –
355.27 K, 10 kPa, Fluid (supercritical or subcritical phases) | 0.52 ± 0.03 | –
355.27 K, 11.3 kPa, Fluid (supercritical or subcritical phases) | 0.61 ± 0.03 | –
355.27 K, 12.5 kPa, Fluid (supercritical or subcritical phases) | 0.64 ± 0.03 | –
355.27 K, 13.7 kPa, Fluid (supercritical or subcritical phases) | 0.67 ± 0.03 | –
355.27 K, 15 kPa, Fluid (supercritical or subcritical phases) | 0.66 ± 0.03 | –
355.27 K, 16 kPa, Fluid (supercritical or subcritical phases) | 0.83 ± 0.03 | –
355.27 K, 18.5 kPa, Fluid (supercritical or subcritical phases) | 0.93 ± 0.03 | –
355.27 K, 19.9 kPa, Fluid (supercritical or subcritical phases) | 1.04 ± 0.03 | –
355.27 K, 21.2 kPa, Fluid (supercritical or subcritical phases) | 1.09 ± 0.03 | –
355.27 K, 22.2 kPa, Fluid (supercritical or subcritical phases) | 1.15 ± 0.03 | –
355.27 K, 23.4 kPa, Fluid (supercritical or subcritical phases) | 1.24 ± 0.03 | –
355.27 K, 24.5 kPa, Fluid (supercritical or subcritical phases) | 1.28 ± 0.03 | –
355.27 K, 25.7 kPa, Fluid (supercritical or subcritical phases) | 1.37 ± 0.03 | –
355.27 K, 26.7 kPa, Fluid (supercritical or subcritical phases) | 1.39 ± 0.03 | –
355.27 K, 27.9 kPa, Fluid (supercritical or subcritical phases) | 1.42 ± 0.03 | –
355.27 K, 29.2 kPa, Fluid (supercritical or subcritical phases) | 1.46 ± 0.03 | –
355.27 K, 30.3 kPa, Fluid (supercritical or subcritical phases) | 1.62 ± 0.03 | –
355.27 K, 31.3 kPa, Fluid (supercritical or subcritical phases) | 1.64 ± 0.03 | –
355.27 K, 32.3 kPa, Fluid (supercritical or subcritical phases) | 1.71 ± 0.03 | –
355.27 K, 34.6 kPa, Fluid (supercritical or subcritical phases) | 1.82 ± 0.03 | –
355.27 K, 37.4 kPa, Fluid (supercritical or subcritical phases) | 1.95 ± 0.03 | –
355.27 K, 41.7 kPa, Fluid (supercritical or subcritical phases) | 2.14 ± 0.03 | –
355.27 K, 47.8 kPa, Fluid (supercritical or subcritical phases) | 2.49 ± 0.03 | –
355.27 K, 53.6 kPa, Fluid (supercritical or subcritical phases) | 2.8 ± 0.03 | –
355.27 K, 58 kPa, Fluid (supercritical or subcritical phases) | 3.03 ± 0.03 | –
355.27 K, 62.5 kPa, Fluid (supercritical or subcritical phases) | 3.28 ± 0.03 | –
355.27 K, 67.1 kPa, Fluid (supercritical or subcritical phases) | 3.54 ± 0.03 | –
355.27 K, 71.8 kPa, Fluid (supercritical or subcritical phases) | 3.72 ± 0.03 | –
355.27 K, 76 kPa, Fluid (supercritical or subcritical phases) | 4.09 ± 0.03 | –
355.27 K, 80.2 kPa, Fluid (supercritical or subcritical phases) | 4.21 ± 0.03 | –
355.27 K, 84.7 kPa, Fluid (supercritical or subcritical phases) | 4.42 ± 0.03 | –
355.27 K, 89.7 kPa, Fluid (supercritical or subcritical phases) | 4.7 ± 0.03 | –
355.27 K, 94.5 kPa, Fluid (supercritical or subcritical phases) | 4.96 ± 0.03 | –
355.27 K, 99.2 kPa, Fluid (supercritical or subcritical phases) | 5.14 ± 0.03 | –
355.27 K, 108.4 kPa, Fluid (supercritical or subcritical phases) | 5.69 ± 0.03 | –
355.27 K, 121.7 kPa, Fluid (supercritical or subcritical phases) | 6.32 ± 0.03 | –
355.27 K, 136.3 kPa, Fluid (supercritical or subcritical phases) | 7.14 ± 0.03 | –
355.27 K, 150.1 kPa, Fluid (supercritical or subcritical phases) | 7.91 ± 0.04 | –
355.27 K, 175.9 kPa, Fluid (supercritical or subcritical phases) | 9.29 ± 0.04 | –
355.27 K, 189 kPa, Fluid (supercritical or subcritical phases) | 9.98 ± 0.04 | –
355.27 K, 202.9 kPa, Fluid (supercritical or subcritical phases) | 10.67 ± 0.04 | –
355.27 K, 215.8 kPa, Fluid (supercritical or subcritical phases) | 11.37 ± 0.04 | –
355.27 K, 229.6 kPa, Fluid (supercritical or subcritical phases) | 12.15 ± 0.04 | –
355.27 K, 243.8 kPa, Fluid (supercritical or subcritical phases) | 12.89 ± 0.04 | –
355.27 K, 256.5 kPa, Fluid (supercritical or subcritical phases) | 13.54 ± 0.04 | –
355.27 K, 269.4 kPa, Fluid (supercritical or subcritical phases) | 14.27 ± 0.04 | –
355.27 K, 282.8 kPa, Fluid (supercritical or subcritical phases) | 15.02 ± 0.04 | –
355.27 K, 296.5 kPa, Fluid (supercritical or subcritical phases) | 15.74 ± 0.04 | –
355.27 K, 310.2 kPa, Fluid (supercritical or subcritical phases) | 16.52 ± 0.04 | –
355.27 K, 323.9 kPa, Fluid (supercritical or subcritical phases) | 17.3 ± 0.04 | –
355.27 K, 337.3 kPa, Fluid (supercritical or subcritical phases) | 18.03 ± 0.04 | –
355.27 K, 350.9 kPa, Fluid (supercritical or subcritical phases) | 18.72 ± 0.04 | –
355.27 K, 364 kPa, Fluid (supercritical or subcritical phases) | 19.44 ± 0.04 | –
355.27 K, 377.5 kPa, Fluid (supercritical or subcritical phases) | 20.18 ± 0.04 | –
355.27 K, 390.9 kPa, Fluid (supercritical or subcritical phases) | 20.91 ± 0.04 | –
355.27 K, 410.7 kPa, Fluid (supercritical or subcritical phases) | 22.1 ± 0.04 | –
355.27 K, 423.7 kPa, Fluid (supercritical or subcritical phases) | 22.78 ± 0.05 | –
355.27 K, 436.7 kPa, Fluid (supercritical or subcritical phases) | 23.55 ± 0.05 | –
355.27 K, 449.9 kPa, Fluid (supercritical or subcritical phases) | 24.26 ± 0.05 | –
355.27 K, 463 kPa, Fluid (supercritical or subcritical phases) | 25.02 ± 0.05 | –
355.27 K, 475.5 kPa, Fluid (supercritical or subcritical phases) | 25.74 ± 0.05 | –
355.27 K, 489.9 kPa, Fluid (supercritical or subcritical phases) | 26.57 ± 0.05 | –
355.27 K, 511.2 kPa, Fluid (supercritical or subcritical phases) | 27.76 ± 0.05 | –
355.27 K, 534.4 kPa, Fluid (supercritical or subcritical phases) | 29.14 ± 0.05 | –
355.27 K, 558.1 kPa, Fluid (supercritical or subcritical phases) | 30.53 ± 0.05 | –
355.27 K, 570.3 kPa, Fluid (supercritical or subcritical phases) | 31.19 ± 0.05 | –
355.27 K, 593.4 kPa, Fluid (supercritical or subcritical phases) | 32.6 ± 0.06 | –
355.27 K, 605.4 kPa, Fluid (supercritical or subcritical phases) | 33.29 ± 0.06 | –
355.27 K, 629.1 kPa, Fluid (supercritical or subcritical phases) | 34.75 ± 0.06 | –
355.27 K, 652.5 kPa, Fluid (supercritical or subcritical phases) | 36.04 ± 0.06 | –
355.27 K, 675.6 kPa, Fluid (supercritical or subcritical phases) | 37.5 ± 0.06 | –
355.27 K, 698.5 kPa, Fluid (supercritical or subcritical phases) | 38.93 ± 0.06 | –
355.27 K, 710.6 kPa, Fluid (supercritical or subcritical phases) | 39.6 ± 0.06 | –
355.27 K, 733.2 kPa, Fluid (supercritical or subcritical phases) | 40.98 ± 0.07 | –
355.27 K, 755.9 kPa, Fluid (supercritical or subcritical phases) | 42.45 ± 0.07 | –
355.27 K, 778.4 kPa, Fluid (supercritical or subcritical phases) | 43.82 ± 0.07 | –
355.27 K, 800.7 kPa, Fluid (supercritical or subcritical phases) | 45.25 ± 0.07 | –
355.27 K, 822.7 kPa, Fluid (supercritical or subcritical phases) | 46.65 ± 0.07 | –
355.27 K, 844.7 kPa, Fluid (supercritical or subcritical phases) | 48.08 ± 0.07 | –
355.27 K, 866.4 kPa, Fluid (supercritical or subcritical phases) | 49.39 ± 0.08 | –
355.27 K, 887.6 kPa, Fluid (supercritical or subcritical phases) | 50.79 ± 0.08 | –
355.27 K, 909.3 kPa, Fluid (supercritical or subcritical phases) | 52.17 ± 0.08 | –
355.27 K, 921.7 kPa, Fluid (supercritical or subcritical phases) | 53.01 ± 0.08 | –
355.27 K, 942.8 kPa, Fluid (supercritical or subcritical phases) | 54.34 ± 0.08 | –
355.27 K, 963 kPa, Fluid (supercritical or subcritical phases) | 55.68 ± 0.08 | –
355.27 K, 985.5 kPa, Fluid (supercritical or subcritical phases) | 57.29 ± 0.09 | –
355.27 K, 1007.7 kPa, Fluid (supercritical or subcritical phases) | 58.71 ± 0.09 | –
355.27 K, 1053.4 kPa, Fluid (supercritical or subcritical phases) | 61.79 ± 0.09 | –
355.27 K, 1076.3 kPa, Fluid (supercritical or subcritical phases) | 63.38 ± 0.09 | –
355.27 K, 1097.4 kPa, Fluid (supercritical or subcritical phases) | 64.83 ± 0.1 | –
355.27 K, 1119.1 kPa, Fluid (supercritical or subcritical phases) | 66.35 ± 0.1 | –
355.27 K, 1140.9 kPa, Fluid (supercritical or subcritical phases) | 67.89 ± 0.1 | –
355.27 K, 1162.7 kPa, Fluid (supercritical or subcritical phases) | 69.42 ± 0.1 | –
355.27 K, 1184.6 kPa, Fluid (supercritical or subcritical phases) | 70.94 ± 0.1 | –
355.27 K, 1205.7 kPa, Fluid (supercritical or subcritical phases) | 72.55 ± 0.11 | –
355.27 K, 1226.6 kPa, Fluid (supercritical or subcritical phases) | 74.03 ± 0.11 | –
355.27 K, 1248.5 kPa, Fluid (supercritical or subcritical phases) | 75.63 ± 0.11 | –
355.27 K, 1268.8 kPa, Fluid (supercritical or subcritical phases) | 77.12 ± 0.11 | –
355.27 K, 1291.7 kPa, Fluid (supercritical or subcritical phases) | 78.82 ± 0.12 | –
355.27 K, 1314.5 kPa, Fluid (supercritical or subcritical phases) | 80.53 ± 0.12 | –
355.27 K, 1336.6 kPa, Fluid (supercritical or subcritical phases) | 82.25 ± 0.12 | –
355.27 K, 1358.9 kPa, Fluid (supercritical or subcritical phases) | 83.95 ± 0.12 | –
355.27 K, 1380.8 kPa, Fluid (supercritical or subcritical phases) | 85.69 ± 0.13 | –
355.27 K, 1401.7 kPa, Fluid (supercritical or subcritical phases) | 87.28 ± 0.13 | –
355.27 K, 1423 kPa, Fluid (supercritical or subcritical phases) | 89.04 ± 0.13 | –
355.27 K, 1445 kPa, Fluid (supercritical or subcritical phases) | 90.76 ± 0.13 | –
355.27 K, 1465.4 kPa, Fluid (supercritical or subcritical phases) | 92.28 ± 0.13 | –
355.27 K, 1486.6 kPa, Fluid (supercritical or subcritical phases) | 94.07 ± 0.14 | –
355.27 K, 1509.1 kPa, Fluid (supercritical or subcritical phases) | 95.9 ± 0.14 | –
355.27 K, 1531 kPa, Fluid (supercritical or subcritical phases) | 97.69 ± 0.14 | –
355.27 K, 1552.1 kPa, Fluid (supercritical or subcritical phases) | 99.45 ± 0.15 | –
355.27 K, 1573.2 kPa, Fluid (supercritical or subcritical phases) | 101.27 ± 0.15 | –
